These compounds were tested against T1, BTK enzyme (Homo sapiens, UniProt Q06187) (assay: In vitro BTK kinase assay: BTK-POLYGAT-LS assay). Details: ATP 10 μM, read-out: IC50 (10uMATP).
T1 construct: purchased Upstate 14-552
Assay type: biochemical
Procedure: The purpose of the BTK in vitro assay is to determine compound potency against BTK through the measurement of IC50. […] For a typical assay, a 24 μL aliquot of a ATP/peptide master mix (final concentration; ATP 10 μM, polyGAT 100 nM) in kinase buffer (10 mM Tris-HCl pH 7.5, 10 mM MgCl2, 200 μM Na3PO4, 5 mM DTT, 0.01% Triton X-100, and 0.2 mg/ml casein) is added to each well. […] The assay is incubated for 30 minutes before being stopped with 28 μL of a 50 mM EDTA solution. […] The plate is covered and incubated for 45 minutes at room temperature.

T1 sequence (Q06187 whole entry): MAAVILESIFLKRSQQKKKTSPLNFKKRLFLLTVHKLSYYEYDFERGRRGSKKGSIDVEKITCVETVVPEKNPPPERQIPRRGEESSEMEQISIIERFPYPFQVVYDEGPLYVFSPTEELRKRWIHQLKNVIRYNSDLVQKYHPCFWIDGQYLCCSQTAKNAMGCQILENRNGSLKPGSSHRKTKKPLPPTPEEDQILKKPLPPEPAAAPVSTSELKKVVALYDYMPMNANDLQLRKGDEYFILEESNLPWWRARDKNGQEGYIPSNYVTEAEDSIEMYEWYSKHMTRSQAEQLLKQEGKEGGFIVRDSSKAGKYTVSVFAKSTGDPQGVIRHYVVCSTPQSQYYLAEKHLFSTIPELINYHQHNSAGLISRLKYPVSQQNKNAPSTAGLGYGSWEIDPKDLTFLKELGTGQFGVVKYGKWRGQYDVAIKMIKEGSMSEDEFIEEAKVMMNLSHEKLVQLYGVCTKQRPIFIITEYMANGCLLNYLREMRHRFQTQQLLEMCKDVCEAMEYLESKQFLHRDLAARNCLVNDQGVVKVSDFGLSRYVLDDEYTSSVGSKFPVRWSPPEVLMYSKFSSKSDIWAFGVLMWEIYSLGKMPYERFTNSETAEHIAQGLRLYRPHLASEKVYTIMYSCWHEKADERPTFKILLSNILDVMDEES

IC50	SMILES
10 to 99 nM	Cc1cc(-c2ccnc(Nc3cnn(C)c3)n2)ccc1C(CO)NC(=O)c1cc2c(s1)CCOC2 (stereo not shown) [Example I-109, N-(2-hydroxy-1-(2-methyl-4-(2-((1-methyl-1H-pyrazol-4-yl)amino)pyrimidin-4-yl)phenyl)ethyl)-6,7-dihydro-4H-thieno[3,2-c]pyran-2-carboxamide]
10 to 99 nM	Cc1cc(-c2nc(N)ncc2F)ccc1CNC(=O)c1cnc(C(C)(C)C)s1 [Example I-110, N-(4-(2-amino-5-fluoropyrimidin-4-yl)-2-methylbenzyl)-2-(tert-butyl)thiazole-5-carboxamide]
< 10 nM	Cc1cc(-c2nc(Nc3cnn(C)c3)ncc2C)ccc1CNC(=O)c1cnc(C(C)(C)C)s1 [Example I-112, 2-(tert-butyl)-N-(2-methyl-4-(5-methyl-2-((1-methyl-1H-pyrazol-4-yl)amino)pyrimidin-4-yl)benzyl)thiazole-5-carboxamide]
100 to 999 nM	Nc1nccc(-c2cnc(CNC(=O)c3cc4c(s3)CCCC4)c(F)c2)n1 [Example I-113, N-((5-(2-aminopyrimidin-4-yl)-3-fluoropyridin-2-yl)methyl)-4,5,6,7-tetrahydrobenzo[b]thiophene-2-carboxamide]
100 to 999 nM	Cc1cc(-c2cnnc(Nc3cnn(C)c3)c2)ccc1CNC(=O)c1cnc(C(C)(C)C)s1 [Example I-114, 2-(tert-butyl)-N-(2-methyl-4-(6-((1-methyl-1H-pyrazol-4-yl)amino)pyridazin-4-yl)benzyl)thiazole-5-carboxamide]
10 to 99 nM	Cn1cc(Nc2nccc(-c3ccc(CNC(=O)c4cc5c(s4)CCOC5)c(F)c3)n2)cn1 [Example I-117, N-(2-fluoro-4-(2-((1-methyl-1H-pyrazol-4-yl)amino)pyrimidin-4-yl)benzyl)-6,7-dihydro-4H-thieno[3,2-c]pyran-2-carboxamide]
100 to 999 nM	Cc1cc(-c2ccnc(Nc3ccc(N4CCN(C)CC4)cn3)n2)ccc1CNC(=O)c1cc2c(s1)CCNC2 [Example I-119, N-(2-methyl-4-(2-((5-(4-methylpiperazin-1-yl)pyridin-2-yl)amino)pyrimidin-4-yl)benzyl)-4,5,6,7-tetrahydrothieno[3,2-c]pyridine-2-carboxamide]
< 10 nM	Cc1cc(-c2ccnc(Nc3cnn(C[C@@H](N)CO)c3)n2)ccc1CNC(=O)c1cnc(C(C)(C)C)s1 [Example I-133, (R)—N-(4-(2-((1-(2-amino-3-hydroxypropyl)-1H-pyrazol-4-yl)amino)pyrimidin-4-yl)-2-methylbenzyl)-2-(tert-butyl)thiazole-5-carboxamide]
< 10 nM	CN1CCn2nc(Nc3cc(-c4ccc5c(c4)CCCC5NC(=O)c4cnc(C(C)(C)C)s4)ncn3)cc2C1 (stereo not shown) [Example I-134, 2-(tert-butyl)-N-(6-(6-((5-methyl-4,5,6,7-tetrahydropyrazolo[1,5-a]pyrazin-2-yl)amino)pyrimidin-4-yl)-1,2,3,4-tetrahydronaphthalen-1-yl)thiazole-5-carboxamide]
10 to 99 nM	CC(C)(C)c1ncc(C(=O)NC2CCCc3cc(-c4ccnc(N)n4)ccc32)s1 (stereo not shown) [Example I-136, N-(6-(2-aminopyrimidin-4-yl)-1,2,3,4-tetrahydronaphthalen-1-yl)-2-(tert-butyl)thiazole-5-carboxamide]
< 10 nM	Nc1nccc(-c2ccc3c(c2)CCCC3NC(=O)c2cc3c(s2)CCCC3)n1 (stereo not shown) [Example I-137, N-(6-(2-aminopyrimidin-4-yl)-1,2,3,4-tetrahydronaphthalen-1-yl)-4,5,6,7-tetrahydrobenzo[b]thiophene-2-carboxamide]
1000 to 10000 nM	Cc1cc(-c2ccnc(N)n2)ccc1CNC(=O)c1cc2c(s1)CCS(=O)(=O)C2 [Example I-138, N-(4-(2-aminopyrimidin-4-yl)-2-methylbenzyl)-6,7-dihydro-4H-thieno[3,2-c]thiopyran-2-carboxamide 5,5-dioxide]
10 to 99 nM	Cc1cc(-c2ccnc(N)n2)ccc1CNC(=O)c1cc2c(s1)CCOC2 [Example I-139, N-(4-(2-aminopyrimidin-4-yl)-2-methylbenzyl)-6,7-dihydro-4H-thieno[3,2-c]pyran-2-carboxamide]
10 to 99 nM	Cc1cc(-c2ccnc(N)n2)ccc1CNC(=O)c1cc2c(s1)CCNC2 [Example I-140, N-(4-(2-aminopyrimidin-4-yl)-2-methylbenzyl)-4,5,6,7-tetrahydrothieno[3,2-c]pyridine-2-carboxamide]
100 to 999 nM	Cc1cc(-c2ccnc(N)n2)ccc1CNC(=O)c1cc2c(s1)CCN(C)C2 [Example I-141, N-(4-(2-aminopyrimidin-4-yl)-2-methylbenzyl)-5-methyl-4,5,6,7-tetrahydrothieno[3,2-c]pyridine-2-carboxamide]
< 10 nM	CC(=O)Nc1cc(-c2ccc(CNC(=O)c3cc4c(s3)CCCC4)c(C)c2)ncn1 [Example I-143, N-(4-(6-acetamidopyrimidin-4-yl)-2-methylbenzyl)-4,5,6,7-tetrahydrobenzo[b]thiophene-2-carboxamide]
10 to 99 nM	CN(Cc1cc(-c2ccnc(N)n2)ccc1CNC(=O)c1cc2c(s1)CCCC2)C(=O)OC(C)(C)C [Example I-144, tert-butyl 5-(2-aminopyrimidin-4-yl)-2-((4,5,6,7-tetrahydrobenzo[b]thiophene-2-carboxamido)methyl)benzyl(methyl)carbamate]
100 to 999 nM	CNCc1cc(-c2ccnc(N)n2)ccc1CNC(=O)c1cc2c(s1)CCCC2 [Example I-145, N-(4-(2-aminopyrimidin-4-yl)-2-((methylamino)methyl)benzyl)-4,5,6,7-tetrahydrobenzo[b]thiophene-2-carboxamide]
100 to 999 nM	C=CC(=O)N(C)Cc1cc(-c2ccnc(N)n2)ccc1CNC(=O)c1cc2c(s1)CCCC2 [Example I-146, N-(4-(2-aminopyrimidin-4-yl)-2-((N-methylacrylamido)methyl)benzyl)-4,5,6,7-tetrahydrobenzo[b]thiophene-2-carboxamide]
< 10 nM	Cc1cc(-c2cc(Nc3cc4n(n3)CCCN(C)C4)ncn2)ccc1CNC(=O)c1cnc(C(C)(C)C)s1 [Example I-147, 2-(tert-butyl)-N-(2-methyl-4-(6-((5-methyl-5,6,7,8-tetrahydro-4H-pyrazolo[1,5-a][1,4]diazepin-2-yl)amino)pyrimidin-4-yl)benzyl)thiazole-5-carboxamide]
< 10 nM	Cc1cc(-c2cc(Nc3cc4n(n3)CCCNC4)ncn2)ccc1CNC(=O)c1cnc(C(C)(C)C)s1 [Example I-148, 2-(tert-butyl)-N-(2-methyl-4-(6-((5,6,7,8-tetrahydro-4H-pyrazolo[1,5-a][1,4]diazepin-2-yl)amino)pyrimidin-4-yl)benzyl)thiazole-5-carboxamide]
< 10 nM	Cc1cc(-c2cc(Nc3cc4n(n3)CCCN(C(=O)OC(C)(C)C)C4)ncn2)ccc1CNC(=O)c1cnc(C(C)(C)C)s1 [Example I-149, tert-butyl 2-((6-(4-((2-(tert-butyl)thiazole-5-carboxamido)methyl)-3-methylphenyl)pyrimidin-4-yl)amino)-7,8-dihydro-4H-pyrazolo[1,5-a][1,4]diazepine-5(6H)-carboxylate]
< 10 nM	Cc1cc(-c2cc(Nc3cc4n(n3)CCN(C)C4)ncn2)ccc1CNC(=O)c1cnn(C(C)(C)C)c1 [Example I-150, 1-(tert-butyl)-N-(2-methyl-4-(6-((5-methyl-4,5,6,7-tetrahydropyrazolo[1,5-a]pyrazin-2-yl)amino)pyrimidin-4-yl)benzyl)-1H-pyrazole-4-carboxamide]
< 10 nM	Cc1cc(-c2cc(Nc3ccn(CCO)n3)ncn2)ccc1CNC(=O)c1cnc(C(C)(C)C)s1 [Example I-151, 2-(tert-butyl)-N-(4-(6-((1-(2-hydroxyethyl)-1H-pyrazol-3-yl)amino)pyrimidin-4-yl)-2-methylbenzyl)thiazole-5-carboxamide]
< 10 nM	Cc1cc(-c2ccnc(Nc3cnn(C)c3)n2)ccc1CNC(=O)c1cc(C(C)(C)C)on1 [Example I-153, 5-(tert-butyl)-N-(2-methyl-4-(2-((1-methyl-1H-pyrazol-4-yl)amino)pyrimidin-4-yl)benzyl)isoxazole-3-carboxamide]
< 10 nM	Cc1cc(-c2ccnc(Nc3cnn(C)c3)n2)ccc1CNC(=O)c1cnn(C(C)(C)C)c1 [Example I-154, 1-(tert-butyl)-N-(2-methyl-4-(2-((1-methyl-1H-pyrazol-4-yl)amino)pyrimidin-4-yl)benzyl)-1H-pyrazole-4-carboxamide]
10 to 99 nM	Cc1cc(-c2ccnc(Nc3cnn(C)c3)n2)ccc1CNC(=O)c1ccn(C)c1 [Example I-155, 1-Methyl-N-(2-methyl-4-(2-((1-methyl-1H-pyrazol-4-yl)amino)pyrimidin-4-yl)benzyl)-1H-pyrrole-3-carboxamide]
100 to 999 nM	Cc1cc(-c2ccnc(Nc3cnn(C)c3)n2)ccc1CNC(=O)c1cn2c(n1)CCCC2 [Example I-156, N-(2-Methyl-4-(2-((1-methyl-1H-pyrazol-4-yl)amino)pyrimidin-4-yl)benzyl)-5,6,7,8-tetrahydroimidazo[1,2-a]pyridine-2-carboxamide]
10 to 99 nM	Cc1cc(-c2ccnc(Nc3cnn(C)c3)n2)ccc1CNC(=O)c1cnn(C)c1 [Example I-157, 1-Methyl-N-(2-methyl-4-(2-((1-methyl-1H-pyrazol-4-yl)amino)pyrimidin-4-yl)benzyl)-1H-pyrazole-4-carboxamide]
100 to 999 nM	Cc1cc(-c2ccnc(Nc3cnn(C)c3)n2)ccc1CNC(=O)c1cccn1C [Example I-158, 1-Methyl-N-(2-methyl-4-(2-((1-methyl-1H-pyrazol-4-yl)amino)pyrimidin-4-yl)benzyl)-1H-pyrrole-2-carboxamide]

SMILES	IC50
Cc1cc(-c2ccnc(Nc3cnn(C)c3)n2)ccc1CNC(=O)N1CC(OC(C)(C)C)C1 [Example I-152, 3-(tert-butoxy)-N-(2-methyl-4-(2-((1-methyl-1H-pyrazol-4-yl)amino)pyrimidin-4-yl)benzyl)azetidine-1-carboxamide]	< 10 nM

From US10759783B2, “Biaryl inhibitors of Bruton'S tyrosine kinase” (BIOGEN MA INC., priority 2013, dated 2020)
